The results in this text go back to ChEMBL document CHEMBL2429864, “Synthesis and antimicrobial evaluation of 1,3,4-oxadiazole-based chalcone derivatives” (2013).

Converted amounts (≈) assume the structure as drawn.

The first assay relates to Aspergillus niger. Briefly: Antifungal activity against Aspergillus niger ATCC 1015. The format is functional.
`O=C(CSc1nnc(-c2cccc([N+](=O)[O-])c2)o1)Nc1ccc(C(=O)/C=C\c2ccc([N+](=O)[O-])cc2)cc1`: the MIC (usually the lowest concentration that inhibits growth of the organism) stood at 250 µg/mL (≈ 470 µM).
The molecule `O=C(CSc1nnc(-c2cccc([N+](=O)[O-])c2)o1)Nc1ccc(C(=O)/C=C\c2ccc(Br)cc2)cc1` had an MIC of 250 µg/mL (≈ 442 µM).
`COc1ccc(/C=C\C(=O)c2ccc(NC(=O)CSc3nnc(-c4cccc([N+](=O)[O-])c4)o3)cc2)cc1OC` had an MIC of 500 µg/mL (≈ 915 µM).
In turn, `O=C(CSc1nnc(-c2cccc([N+](=O)[O-])c2)o1)Nc1ccc(C(=O)/C=C\c2ccccc2[N+](=O)[O-])cc1` came in with an MIC of 250 µg/mL (≈ 470 µM).
As to `O=C(CSc1nnc(-c2cccc([N+](=O)[O-])c2)o1)Nc1ccc(C(=O)/C=C\c2ccccc2)cc1`, the MIC was found to be 125 µg/mL (≈ 257 µM).
`COc1cc(/C=C\C(=O)c2ccc(NC(=O)CSc3nnc(-c4cccc([N+](=O)[O-])c4)o3)cc2)cc(OC)c1OC` returned an MIC of 125 µg/mL (≈ 217 µM).
As for `OC(Cn1cncn1)(Cn1cncn1)c1ccc(F)cc1F` [FLUCONAZOLE], the MIC came out at 62.5 µg/mL (≈ 204 µM).

The test system of a further assay is Staphylococcus aureus. Description: Antibacterial activity against Staphylococcus aureus ATCC 25923 by micro dilution/broth titre method. The format is functional.
Consider `O=C(CSc1nnc(-c2cccc([N+](=O)[O-])c2)o1)Nc1ccc(C(=O)/C=C\c2ccc([N+](=O)[O-])cc2)cc1`, for which the MIC is 62.5 µg/mL (≈ 118 µM).
Molecule `O=C(CSc1nnc(-c2cccc([N+](=O)[O-])c2)o1)Nc1ccc(C(=O)/C=C\c2ccc(Br)cc2)cc1` gave an MIC of 62.5 µg/mL (≈ 111 µM).
Turning to `COc1ccc(/C=C\C(=O)c2ccc(NC(=O)CSc3nnc(-c4cccc([N+](=O)[O-])c4)o3)cc2)cc1OC`, the MIC was 62.5 µg/mL (≈ 114 µM).
Take `O=C(CSc1nnc(-c2cccc([N+](=O)[O-])c2)o1)Nc1ccc(C(=O)/C=C\c2ccccc2[N+](=O)[O-])cc1`: the lowest concentration to inhibit growth (MIC) was 125 µg/mL (≈ 235 µM).
Molecule `O=C(CSc1nnc(-c2cccc([N+](=O)[O-])c2)o1)Nc1ccc(C(=O)/C=C\c2ccccc2)cc1` displayed an MIC of 31.2 µg/mL (≈ 64.2 µM).
`COc1cc(/C=C\C(=O)c2ccc(NC(=O)CSc3nnc(-c4cccc([N+](=O)[O-])c4)o3)cc2)cc(OC)c1OC`: the MIC was 62.5 µg/mL (≈ 108 µM).
In turn, `O=C(O)c1cn(C2CC2)c2cc(N3CCNCC3)c(F)cc2c1=O` [CIPROFLOXACIN] showed an MIC of 62.5 µg/mL (≈ 189 µM).

In the next assay the test system is Escherichia coli. Briefly: Antibacterial activity against Escherichia coli ATCC 25922 by micro dilution/broth titre method. Format: functional.
Molecule `O=C(CSc1nnc(-c2cccc([N+](=O)[O-])c2)o1)Nc1ccc(C(=O)/C=C\c2ccc([N+](=O)[O-])cc2)cc1` had an MIC of 31.2 µg/mL (≈ 58.8 µM).
For `O=C(CSc1nnc(-c2cccc([N+](=O)[O-])c2)o1)Nc1ccc(C(=O)/C=C\c2ccc(Br)cc2)cc1`, the MIC amounted to 62.5 µg/mL (≈ 111 µM).
Same read-out and setting: the figure for `COc1ccc(/C=C\C(=O)c2ccc(NC(=O)CSc3nnc(-c4cccc([N+](=O)[O-])c4)o3)cc2)cc1OC` is 62.5 µg/mL (≈ 114 µM).
The same measure, in the same setting: the figure for `O=C(CSc1nnc(-c2cccc([N+](=O)[O-])c2)o1)Nc1ccc(C(=O)/C=C\c2ccccc2[N+](=O)[O-])cc1` is 62.5 µg/mL (≈ 118 µM); for `O=C(CSc1nnc(-c2cccc([N+](=O)[O-])c2)o1)Nc1ccc(C(=O)/C=C\c2ccccc2)cc1` it is 31.2 µg/mL (≈ 64.2 µM).
Consider `COc1cc(/C=C\C(=O)c2ccc(NC(=O)CSc3nnc(-c4cccc([N+](=O)[O-])c4)o3)cc2)cc(OC)c1OC`, for which the minimal inhibitory concentration (MIC) stood at 62.5 µg/mL (≈ 108 µM).
Molecule `O=C(O)c1cn(C2CC2)c2cc(N3CCNCC3)c(F)cc2c1=O` [CIPROFLOXACIN] had an MIC of 125 µg/mL (≈ 377 µM).

The next assay relates to Pseudomonas aeruginosa. Briefly: Antibacterial activity against Pseudomonas aeruginosa ATCC 27853 by micro dilution/broth titre method. Format: functional.
With `O=C(CSc1nnc(-c2cccc([N+](=O)[O-])c2)o1)Nc1ccc(C(=O)/C=C\c2ccc([N+](=O)[O-])cc2)cc1`, 62.5 µg/mL (≈ 118 µM) was the least that counted as inhibitory (MIC).
Molecule `O=C(CSc1nnc(-c2cccc([N+](=O)[O-])c2)o1)Nc1ccc(C(=O)/C=C\c2ccc(Br)cc2)cc1` yielded an MIC of 62.5 µg/mL (≈ 111 µM).
With `COc1ccc(/C=C\C(=O)c2ccc(NC(=O)CSc3nnc(-c4cccc([N+](=O)[O-])c4)o3)cc2)cc1OC`, inhibition of growth (MIC) required 62.5 µg/mL (≈ 114 µM).
Consider `O=C(CSc1nnc(-c2cccc([N+](=O)[O-])c2)o1)Nc1ccc(C(=O)/C=C\c2ccccc2[N+](=O)[O-])cc1`, for which the MIC was 62.5 µg/mL (≈ 118 µM).
The molecule `O=C(CSc1nnc(-c2cccc([N+](=O)[O-])c2)o1)Nc1ccc(C(=O)/C=C\c2ccccc2)cc1` showed an MIC of 62.5 µg/mL (≈ 128 µM).
The molecule `COc1cc(/C=C\C(=O)c2ccc(NC(=O)CSc3nnc(-c4cccc([N+](=O)[O-])c4)o3)cc2)cc(OC)c1OC` gave an MIC of 62.5 µg/mL (≈ 108 µM).
`O=C(O)c1cn(C2CC2)c2cc(N3CCNCC3)c(F)cc2c1=O` [CIPROFLOXACIN] returned an MIC of 125 µg/mL (≈ 377 µM). Against the preceding molecule, the MIC is about 2-fold higher.

For the next assay, the system named is Enterococcus faecalis. Description: Antibacterial activity against Enterococcus faecalis ATCC 29212 by micro dilution/broth titre method. The format is functional.
For the molecule `O=C(CSc1nnc(-c2cccc([N+](=O)[O-])c2)o1)Nc1ccc(C(=O)/C=C\c2ccc([N+](=O)[O-])cc2)cc1`, it took 62.5 µg/mL (≈ 118 µM) to inhibit growth (MIC).
In the case of `O=C(CSc1nnc(-c2cccc([N+](=O)[O-])c2)o1)Nc1ccc(C(=O)/C=C\c2ccc(Br)cc2)cc1`, the MIC came to 62.5 µg/mL (≈ 111 µM).
Take `COc1ccc(/C=C\C(=O)c2ccc(NC(=O)CSc3nnc(-c4cccc([N+](=O)[O-])c4)o3)cc2)cc1OC`: the MIC was found to be 31.2 µg/mL (≈ 57.2 µM). Compared with the last molecule, the MIC is about 2-fold lower.
`O=C(CSc1nnc(-c2cccc([N+](=O)[O-])c2)o1)Nc1ccc(C(=O)/C=C\c2ccccc2[N+](=O)[O-])cc1` registered an MIC of 125 µg/mL (≈ 235 µM). This MIC lies about 4-fold higher than the previous one.
In turn, `O=C(CSc1nnc(-c2cccc([N+](=O)[O-])c2)o1)Nc1ccc(C(=O)/C=C\c2ccccc2)cc1` displayed an MIC of 31.2 µg/mL (≈ 64.2 µM). Against the preceding molecule, the MIC is about 4-fold lower.
`COc1cc(/C=C\C(=O)c2ccc(NC(=O)CSc3nnc(-c4cccc([N+](=O)[O-])c4)o3)cc2)cc(OC)c1OC` had an MIC of 62.5 µg/mL (≈ 108 µM).
Turning to `O=C(O)c1cn(C2CC2)c2cc(N3CCNCC3)c(F)cc2c1=O` [CIPROFLOXACIN], the MIC worked out at 125 µg/mL (≈ 377 µM).

A further assay relates to Candida albicans. Description: Antifungal activity against Candida albicans ATCC 10231. The format is functional.
The molecule `O=C(CSc1nnc(-c2cccc([N+](=O)[O-])c2)o1)Nc1ccc(C(=O)/C=C\c2ccc([N+](=O)[O-])cc2)cc1` had an MIC of 250 µg/mL (≈ 470 µM).
Consider `O=C(CSc1nnc(-c2cccc([N+](=O)[O-])c2)o1)Nc1ccc(C(=O)/C=C\c2ccc(Br)cc2)cc1`, for which the lowest concentration to inhibit growth (MIC) was 250 µg/mL (≈ 442 µM).
As to `COc1ccc(/C=C\C(=O)c2ccc(NC(=O)CSc3nnc(-c4cccc([N+](=O)[O-])c4)o3)cc2)cc1OC`, the MIC turned out to be 500 µg/mL (≈ 915 µM).
As for `O=C(CSc1nnc(-c2cccc([N+](=O)[O-])c2)o1)Nc1ccc(C(=O)/C=C\c2ccccc2[N+](=O)[O-])cc1`, the MIC worked out at 250 µg/mL (≈ 470 µM).
Turning to `O=C(CSc1nnc(-c2cccc([N+](=O)[O-])c2)o1)Nc1ccc(C(=O)/C=C\c2ccccc2)cc1`, the minimal inhibitory concentration (MIC) was found to be 250 µg/mL (≈ 514 µM).
For the molecule `COc1cc(/C=C\C(=O)c2ccc(NC(=O)CSc3nnc(-c4cccc([N+](=O)[O-])c4)o3)cc2)cc(OC)c1OC`, the MIC amounted to 250 µg/mL (≈ 434 µM).
As for `OC(Cn1cncn1)(Cn1cncn1)c1ccc(F)cc1F` [FLUCONAZOLE], the MIC came out at 125 µg/mL (≈ 408 µM).
